Reference: publication PMC10466331, “Fluorescence polarisation activity-based protein profiling for the identification of deoxynojirimycin-type inhibitors selective for lysosomal retaining alpha- and beta-glucosidases” (Chemical Science, 2023)
Where two headings read alike, the source gives them in different places.

Experiments:
Type in all cases: biochemical
[1] = molecular target: T1, recombinant human GAA (rhGAA, Myozyme) (Homo sapiens, UniProt P10253); assay: competitive FluoPol-ABPP assay on rhGAA with TAMRA-ABP II; conditions: for GAA FP% (residual FP-signal): library screen, 5 μM inhibitor, 25 nM ABP II;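 on all read-outs here: fluorescence polarization read at 540 nm excitation and 590 nm emission, background-corrected, normalized to uninhibited probe labelling as 100% and excess cyclosulfate as 0%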
T1 construct: purchased Genzyme

[2] = molecular target: T2, human recombinant lysosomal α-glucosidase GAA (Myozyme) (Homo sapiens, UniProt P10253); assay: fluorogenic substrate (4MU-α-D-glucopyranoside) assay on rhGAA; conditions: Table S2, 4-MU alpha glucoside substrate, read-out: IC50 on rhGAA
T2 construct: purchased Genzyme

[3] = molecular target: T3, ER α-glucosidase GANAB (from Pompe disease Fibroblast lysates) (Homo sapiens, UniProt Q14697); assay: fluorogenic substrate (4MU-α-D-glucopyranoside) assay on GANAB in Pompe fibroblast homogenates;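 further: inhibitor preincubated 30 min at 37 °C with homogenate, then GANAB activity read after 2 h with 3.0 mM fluorogenic substrate in McIlvaine buffer containing 0.1% BSA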
T3 construct: Cellular homogenates of Pompe fibroblasts (1 mg mL^−1) were used as protein source for GANAB; endogenous in cells; host or cells: Pompe disease fibroblasts (homogenate)
T3 sequence (Q14697 29-944): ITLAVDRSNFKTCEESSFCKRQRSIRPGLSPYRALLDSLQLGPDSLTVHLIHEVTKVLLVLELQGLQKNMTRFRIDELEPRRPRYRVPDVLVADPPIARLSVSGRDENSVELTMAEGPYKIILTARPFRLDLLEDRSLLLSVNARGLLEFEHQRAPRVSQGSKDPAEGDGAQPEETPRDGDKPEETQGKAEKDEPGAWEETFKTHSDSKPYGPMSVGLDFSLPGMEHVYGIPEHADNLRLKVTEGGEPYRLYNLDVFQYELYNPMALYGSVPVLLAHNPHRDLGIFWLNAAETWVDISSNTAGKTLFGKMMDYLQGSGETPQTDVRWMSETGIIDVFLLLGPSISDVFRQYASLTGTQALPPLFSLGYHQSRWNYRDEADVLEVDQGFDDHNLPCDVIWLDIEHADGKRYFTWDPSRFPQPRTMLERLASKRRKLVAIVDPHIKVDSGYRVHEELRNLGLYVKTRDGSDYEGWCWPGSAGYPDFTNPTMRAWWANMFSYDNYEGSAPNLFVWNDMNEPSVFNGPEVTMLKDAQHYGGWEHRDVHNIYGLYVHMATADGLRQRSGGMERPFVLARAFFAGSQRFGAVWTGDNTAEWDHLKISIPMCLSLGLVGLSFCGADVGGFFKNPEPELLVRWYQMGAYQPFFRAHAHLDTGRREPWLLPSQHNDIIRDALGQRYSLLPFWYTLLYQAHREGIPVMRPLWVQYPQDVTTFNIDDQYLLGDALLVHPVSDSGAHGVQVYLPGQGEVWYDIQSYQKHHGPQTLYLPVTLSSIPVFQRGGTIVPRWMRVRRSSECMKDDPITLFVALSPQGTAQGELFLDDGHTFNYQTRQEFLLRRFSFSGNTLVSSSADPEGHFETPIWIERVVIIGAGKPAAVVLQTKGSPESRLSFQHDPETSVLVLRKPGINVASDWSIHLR
T3 sequence (P14314 15-528 partner): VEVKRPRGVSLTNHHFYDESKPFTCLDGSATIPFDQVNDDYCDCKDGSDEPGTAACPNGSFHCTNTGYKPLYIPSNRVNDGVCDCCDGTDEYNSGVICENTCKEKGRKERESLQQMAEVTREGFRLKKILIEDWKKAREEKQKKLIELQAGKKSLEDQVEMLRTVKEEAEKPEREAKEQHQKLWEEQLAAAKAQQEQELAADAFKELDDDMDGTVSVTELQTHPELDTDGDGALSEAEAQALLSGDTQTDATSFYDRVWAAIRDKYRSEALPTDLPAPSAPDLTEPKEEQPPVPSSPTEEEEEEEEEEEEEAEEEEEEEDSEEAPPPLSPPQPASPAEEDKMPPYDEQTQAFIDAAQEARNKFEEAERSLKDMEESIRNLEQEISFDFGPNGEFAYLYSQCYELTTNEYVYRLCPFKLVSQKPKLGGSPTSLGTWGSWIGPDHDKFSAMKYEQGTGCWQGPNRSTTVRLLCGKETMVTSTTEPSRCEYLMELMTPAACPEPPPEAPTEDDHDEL

[4] = Table S2, 4-MU alpha glucoside substrate, read-out: IC50 on GANAB

Compound | GAA FP% (residual FP-signal) [1] [%] | IC50 [2] [nM] | IC50 [3, 4] [nM] | also measured
CC(C)=CCC/C(C)=C/CC/C(C)=C/CN1C[C@H](O)[C@@H](O)[C@H](O)[C@H]1CO [#ID 16] | 0.9 | 320 | 8800 | 
O=C(CCCCCN1C[C@H](O)[C@@H](O)[C@H](O)[C@H]1CO)NC12CC3CC(CC(C3)C1)C2 [#ID 18] | 24 | 360 | 2400 | 
CCCCOCCCCCN1C[C@H](O)[C@@H](O)[C@H](O)[C@H]1CO [#ID 19] |  |  |  | GAA FP% (residual FP-signal) ([1]; listed as 19): 28%; IC50 ([2]; listed as 19): 350 nM; IC50 ([3]; Table S2, 4-MU alpha glucoside substrate, listed as 19, read-out: IC50 on GANAB): 3600 nM
CCCCCOCCCCCN1C[C@H](O)[C@@H](O)[C@H](O)[C@H]1CO [#ID 20] |  |  |  | GAA FP% (residual FP-signal) ([1]; listed as 20): 17%; IC50 ([2]; listed as 20): 330 nM; IC50 ([3]; Table S2, 4-MU alpha glucoside substrate, listed as 20, read-out: IC50 on GANAB): 19000 nM
CC(C)CCCC(C)C1CCC2C3CC=C4CC(OCCCCCN5CC(O)C(O)C(O)C5CO)CCC4(C)C3CCC12C (centres unmarked) [#ID 22] | 6.5 | 170 | 6000 | 
CCCCCCCOCCCCCN1C[C@H](O)[C@@H](O)[C@H](O)[C@H]1CO [#ID 23] |  |  |  | GAA FP% (residual FP-signal) ([1]; listed as 23): 16%; IC50 ([2]; listed as 23): 290 nM; IC50 ([3]; Table S2, 4-MU alpha glucoside substrate, listed as 23, read-out: IC50 on GANAB): 7200 nM
CC(C)(C)COCCCCCN1C[C@H](O)[C@@H](O)[C@H](O)[C@@H]1CO [#ID 26] | 23 | 640 | 29000 | 
CCCCCCN1C[C@H](O)[C@@H](O)[C@H](O)[C@H]1CO [#ID 29] |  |  |  | GAA FP% (residual FP-signal) ([1]; listed as 29): 49%; IC50 ([2]; listed as 29): 1500 nM
CCCCCCCCN1C[C@H](O)[C@@H](O)[C@H](O)[C@H]1CO [#ID 33] |  |  |  | GAA FP% (residual FP-signal) ([1]; listed as 33): 28%; IC50 ([2]; listed as 33): 540 nM; IC50 ([3]; Table S2, 4-MU alpha glucoside substrate, listed as 33, read-out: IC50 on GANAB): 16000 nM
OC[C@@H]1[C@@H](O)[C@H](O)[C@@H](O)CN1CCCCCOCc1ccc(-c2ccccc2)cc1F [#ID 35] | 4.8 | 21 | 710 | 
OC[C@@H]1[C@@H](O)[C@H](O)[C@@H](O)CN1CCCCCOCc1ccc(-c2ccccc2)c(F)c1 [#ID 37] | 3.6 | 37 | 1600 | 
OC[C@@H]1[C@H](O)[C@@H](O)[C@H](O)CN1CCOCc1ccccc1 [#ID 47] | 34 | 550 | 4600 | 
OC[C@@H]1[C@@H](O)[C@H](O)[C@@H](O)CN1CCCCCOCc1ccc2ccccc2c1 [#ID 58] | 7.7 | 250 | 850 | 
CC(C)(C)COCCOCCN1C[C@H](O)[C@@H](O)[C@H](O)[C@H]1CO [#ID 89] | 24 | 730 | 1700 | 
CC(C)=CCC/C(C)=C/CC/C(C)=C/COCCCCCN1C[C@H](O)[C@@H](O)[C@H](O)[C@H]1CO [#ID 90] | 6.8 | 490 | 2500 | 
OC[C@@H]1[C@@H](O)[C@H](O)[C@@H](O)CN1CCCCCOCC12CC3CC(C1)CC(COCCCCCN1C[C@H](O)[C@@H](O)[C@H](O)[C@H]1CO)(C3)C2 [#ID 99] | 5.6 | 280 | 1300 | 
CC(C)=CCOCCCCCN1C[C@H](O)[C@@H](O)[C@H](O)[C@H]1CO [#ID 100] | 19 | 600 | 9900 | 
OC[C@@H]1[C@@H](O)[C@H](O)[C@@H](O)CN1CCCCCOCc1ccc(-c2ccccc2)cc1C(F)(F)F [#ID 118] | 2.9 | 18 | 480 | 
OC[C@@H]1[C@@H](O)[C@H](O)[C@@H](O)CN1CCCCCOCc1ccc(-c2ccccc2)c(C(F)(F)F)c1 [#ID 120] | 2.4 | 16 | 720 | 
OC[C@@H]1[C@H](O)[C@@H](O)[C@H](O)CN1CCCCCOCc1ccc(-c2ccccc2)cc1 [#ID 122] | 35 | 1300 |  | 
OC[C@@H]1[C@@H](O)[C@H](O)[C@@H](O)CN1CCCCCOCC1CCCCC1 [#ID 127] | 9.3 | 290 | 1840 | 
OC[C@@H]1[C@@H](O)[C@H](O)[C@@H](O)CN1CCCCCOCc1ccccc1 [#ID 139] | 20 | 760 | 9320 | 
OC[C@@H]1[C@@H](O)[C@H](O)[C@@H](O)CN1CCCCCCOCC12CC3CC(CC(C3)C1)C2 [#ID 141] | 1.8 | 290 | 580 | 
OC[C@@H]1[C@H](O)[C@H](O)[C@@H](O)CN1CCCCCOCC12CC3CC(CC(C3)C1)C2 [#ID 150] | 15 |  | 12000 | 
CCCCN1C[C@H](O)[C@@H](O)[C@@H](O)[C@H]1CO [#ID 153] | 14 | 3600 | 19000 | 
OC[C@H]1NC[C@H](O)[C@@H](O)[C@H]1O [#ID 154] | 2.4 |  |  | 
OC[C@H]1N[C@H](C/C=C/CCOCC23CC4CC(CC(C4)C2)C3)[C@H](O)[C@@H](O)[C@@H]1O [#ID 159] | 23 | 450 |  | 
CCCCOCCOCCN1C[C@H](O)[C@@H](O)[C@H](O)[C@H]1CO [#ID 200] | 46 | 3900 |  | 
O=S1(=O)O[C@@H]2[C@H](O)[C@@H](O)[C@H](O)[C@@H](CO)[C@@H]2O1 [Compound 12, 1,6-epi-cyclophellitol cyclosulfate, reference compound] |  |  |  | IC50 ([1]; competitive FluoPol-ABPP, rhGAA 80 nM, ABP II 80 nM, pH 5.0, read-out: apparent IC50 (GAA)): 33 nM
OC[C@@H]1[C@@H](O)[C@H](O)[C@@H](O)CN1CCCCCOCC12CC3CC(CC(C3)C1)C2 [Compound 13] | 8.9 |  | 5400 | IC50 ([3]; 4MU-α-glucoside substrate, pH 7.0, mean ± SD, 3 technical replicates, read-out: IC50 GANAB): 5360 ± 570 nM

Further lines, with some results ahead:

GAA FP% (residual FP-signal) [1] [%] | IC50 [2] [nM] | IC50 [3, 4] [nM] | Compound | also measured
17 | 310 | 14800 | CCCCCCOCCCCCN1C[C@H](O)[C@@H](O)[C@H](O)[C@H]1CO [#ID 21] | 
13 | 100 | 4100 | CCCCCCCCOCCCCCN1C[C@H](O)[C@@H](O)[C@H](O)[C@H]1CO [#ID 25] | 
8.4 | 280 | 2800 | CCCCCCCCCOCCCCCN1C[C@H](O)[C@@H](O)[C@H](O)[C@H]1CO [#ID 27] | 
35 | 910 | 60000 | CCCCCCCN1C[C@H](O)[C@@H](O)[C@H](O)[C@H]1CO [#ID 31] | 
18 | 320 | 9000 | CCCCCCCCCN1C[C@H](O)[C@@H](O)[C@H](O)[C@H]1CO [#ID 103] | 
12 | 1700 |  | CCCCCN1C[C@H](O)[C@@H](O)[C@H](O)[C@H]1CO [#ID 297] | 
